Measured values from article PMC10804407, “Rombocin, a Short Stable Natural Nisin Variant, Displays Selective Antimicrobial Activity against Listeria monocytogenes and Employs a Dual Mode of Action to Kill Target Bacterial Strains” (ACS Synthetic Biology, 2024).
Converted amounts (≈) assume the structure as drawn. Like-named read-outs stand apart in the source and are kept apart here. Primed or numbered codes have the meaning given here. Where no end group is shown, it is not given here. [ ]: non-standard residue; d: D form. Dhb′ = not defined here; Dha = C=C(N)C(=O)O

Key:
[1] = system: trypsin, chymotrypsin, and proteinase K; assay: Stability against proteolytic enzymes by residual antimicrobial activity; assay type: in vitro ADME; settings: 40 μL peptide (1 mg/mL) with 1 mg/mL proteolytic enzymes, room temperature, 3 h; residual activity in agar well vs L. lactis 1363; triplicate
Description: To investigate the impact of proteolytic enzymes, pH, and temperature on the antimicrobial activity, a representative strain of L. lactis 1363 was utilized. For the proteolytic enzyme assay, 40 μL of peptide (1 mg/mL) was incubated with or without final concentrations of 1 mg/mL proteolytic enzymes at room temperature for 3 h, followed by an activity test in the agar well. To determine pH stability, the pH was adjusted to 2, 4, 7, and 10 using 1 M HCl or NaOH. The temperature stability was assessed by incubating the peptide at 22, 50, 70, and 90 °C for a specified duration. All experiments were performed in triplicate.
Overnight cultures of the test strains were inoculated at a final concentration of 0.1% (v/v) into melted LB agar at 45 °C and then poured onto plates. After solidification, 8 mm wells were created and filled with 40 μL of the lantibiotic solution (1 mg/mL). The lantibiotics were activated by adding 5 μL of NisP directly to the well. The plates were then incubated overnight at 30 °C, and the zone of inhibition was measured. Zone diameters were calculated by subtracting the area of the well (πr^2) from the area of the zone (πr^2) and reported in millimeters. To determine the peptide concentration, purified and lyophilized peptides were resuspended in 0.05% aqueous acetic acid solution and quantified by HPLC following the protocol described by Schmitt et al.[44] […]

S. aureus LMG10147 = assay type: cell-based, Staphylococcus aureus
Description: (§1) Each experiment was performed in triplicate.

[2] = system: S. aureus LMG15975 (MRSA); assay type: cell-based, Staphylococcus aureus
Description: as §1

L. lactis [3] = assay: Potassium ion efflux assay (PBFI probe); assay type: cell-based, Lactococcus lactis; settings: 5× MIC, 10 mM HEPES pH 7.2 with 0.5% glucose, 10 μM PBFI
Description: To perform the K^+ release assay, we used the K^+-specific fluorescent probe PBFI. L. lactis was cultured in GM17 until the OD600 reached 0.6, after which the cells were harvested (5000g, 5 min) and washed twice with 10 mM HEPES (pH 7.2) with 0.5% glucose. The cells were then resuspended in the same buffer containing 10 μM PBFI. Data were analyzed using a Varioskan LUX Multimode Microplate Reader; cells were excited at 346 nm, and the fluorescence emission was measured at 505 nm to establish a baseline signal before the addition of 5-fold MIC antibiotics, after which data were collected. Nisin was used as a positive control.

L. lactis MG1363 [4] = assay type: cell-based, Lactococcus lactis
Description: as §1

L. monocytogenes LK132 = assay type: cell-based, Listeria monocytogenes
Description: as §1

L. monocytogenes TT82E = assay type: cell-based, Listeria monocytogenes
Description: as §1

[5] = system: L. monocytogenes LMG10470; assay type: cell-based, Listeria monocytogenes
Description: as §1

[6] = system: E. faecalis LMG16216 (VRE); assay type: cell-based, Enterococcus faecalis
Description: as §1

[7] = system: E. faecium LMG16003 (VRE); assay type: cell-based, Enterococcus faecium
Description: as §1

E. faecium LMG11423 = assay type: cell-based, Enterococcus faecium
Description: as §1

L. lactis [8] = assay: Membrane potential determination (DiSC3(5) probe); assay type: cell-based, Lactococcus lactis; settings: 5× MIC, 10 mM HEPES with 10 mM glucose pH 7.2, 2 μM DiSC3(5), 25 min
Description: To measure the membrane potential, the membrane potential-sensitive fluorescent dye DiSC3(5) was utilized. L. lactis was cultured to an OD600 of 0.8, pelleted at 5000g for 5 min, and washed twice in 10 mM HEPES with 10 mM glucose (pH 7.2). The cell density was adjusted to an OD600 of 0.2 and loaded with 2 μM DiSC3(5) dye, followed by 20 min of incubation in the dark to stabilize the probe fluorescence. Next, the cell suspension was added to a 96-well microplate and incubated for 5 min with 100 mM KCl. […] The fluorescence spectrometer’s excitation and emission wavelengths were adjusted to 622 and 670 nm, respectively. Three technical replicates were performed, and the representative example is shown.

L. lactis [9] = assay: Fluorescence microscopy assay of membrane integrity (SYTO 9 / propidium iodide); assay type: cell-based, Lactococcus lactis; settings: 5× MIC, 15 min / 20 min (method), room temperature
Description: L. lactis was cultured until it reached an OD600 of 0.8 and then pelleted at 8000g for 5 min and washed three times in 0.7% NaCl. The cell density was normalized to an OD600 of 0.4 in 0.7% NaCl, and a concentration of 5-fold MIC value of each tested antibiotic was added to the cell suspension simultaneously with SYTO 9 and propidium iodide using the LIVE/DEAD Baclight Bacterial Viability Kit (Invitrogen). After incubation at room temperature for 20 min, the compounds were removed by washing the cells with 0.7% NaCl. Finally, the cell suspensions were loaded onto 1.5% agarose pads and analyzed with a DeltaVision Elite microscope (Applied Precision).

Bacillus cereus CH-85 = assay type: cell-based
Description: as §1

[10] = system: L. monocytogenes LMG10470; assay: Agar well diffusion assay and mutant-activity test; assay type: cell-based, Listeria monocytogenes; settings: 40 μL of 1 mg/mL, zone of inhibition, triplicate
Description: Overnight cultures of the test strains were inoculated at a final concentration of 0.1% (v/v) into melted LB agar at 45 °C and then poured onto plates. After solidification, 8 mm wells were created and filled with 40 μL of the lantibiotic solution (1 mg/mL). The lantibiotics were activated by adding 5 μL of NisP directly to the well. The plates were then incubated overnight at 30 °C, and the zone of inhibition was measured. Zone diameters were calculated by subtracting the area of the well (πr^2) from the area of the zone (πr^2) and reported in millimeters. To determine the peptide concentration, purified and lyophilized peptides were resuspended in 0.05% aqueous acetic acid solution and quantified by HPLC following the protocol described by Schmitt et al.[44] All experiments were performed in triplicate.

L. lactis MG1363 [11] = assay: Time-kill assay; assay type: cell-based, Lactococcus lactis; settings: L. lactis, 5-fold MIC, time-dependent killing
Description: The bactericidal activity of nisin, nisin(1–22), and rombocin was evaluated according to a previously described procedure based on Guo et al.[38] Briefly, an overnight culture of L. lactis MG1363 was diluted 50-fold in GM17 medium and incubated at 30 °C. The bacteria were grown until reaching an optical density at 600 nm (OD600) of 0.5, at which point the cell concentration was adjusted to 5 × 10^5 CFU/mL. Subsequently, the bacteria were challenged with a 5-fold MIC of each peptide. A control sample of an untreated cell suspension was included. At specific time points, 50 μL aliquots were collected, and undiluted and 10-fold serially diluted suspensions were plated on GM17 agar. The plates were incubated overnight at 30 °C, and the resulting colonies were counted and calculated as colony-forming units per milliliter (CFU/mL). Both assays were performed in triplicate to ensure reproducibility.

With `C=C(NC(=O)[C@@H](NC(=O)[C@H](Cc1c[nH]cn1)NC(=O)[C@@H](NC(=O)[C@H](CO)NC(=O)[C@@H]1CS[C@@H](C)[C@H]2NC(=O)[C@H](C)NC(=O)[C@H](NC(=O)[C@H](CCCCN)NC(=O)[C@H](CCSC)NC(=O)[C@H](CC(N)=O)NC(=O)[C@@H]3CS[C@@H](C)[C@@H](NC(=O)[C@H](CCCCN)NC(=O)[C@@H]4CS[C@@H](C)[C@@H](NC(=O)[C@@H]5CSC[C@@H](NC(=O)/C(=C/C)NC(=O)[C@@H](N)[C@@H](C)CC)C(=O)N[C@@H]([C@@H](C)CC)C(=O)NC(=C)C(=O)N[C@@H](CC(C)C)C(=O)N5)C(=O)N5CCC[C@H]5C(=O)NCC(=O)N4)C(=O)NCC(=O)N[C@@H](C)C(=O)N[C@@H](CC(C)C)C(=O)N[C@@H](CCSC)C(=O)NCC(=O)N3)[C@H](C)SC[C@H](NC2=O)C(=O)N[C@@H](CC(N)=O)C(=O)N1)[C@@H](C)CC)C(C)C)C(=O)N[C@@H](CCCCN)C(=O)O` [nisin Z, reference compound] as the molecule, how does the “resistance to proteolytic enzymes” value [1] read?
Its value is “varying stability”.

And the MIC (S. aureus LMG10147; S. aureus LMG10147, broth microdilution, no visible growth, triplicate)?
The MIC was 6,25 μg/mL.

What about the “fold lower MIC of nisin than rombocin A” value (S. aureus LMG10147; against S. aureus (strain not given)) of the same molecule?
The value was 16 fold.

And the MIC ([2]; S. aureus LMG15975 (MRSA), broth microdilution, no visible growth, triplicate)?
Its MIC is 6,25 μg/mL.

And the “release of intracellular potassium ions (PBFI fluorescence)” value (L. lactis [3])?
Its value is “immediate increase in signal”.

And the MIC (L. lactis MG1363 [4]; L. lactis MG1363, broth microdilution, lowest concentration with no visible growth, triplicate)?
The MIC was 0,02 μg/mL.

And the “fold lower MIC of nisin than that of rombocin” value (L. lactis MG1363 [4]; against L. lactis)?
Its value is 40 times.

And the MIC (L. monocytogenes LK132; L. monocytogenes LK132, broth microdilution, no visible growth, triplicate)?
Its MIC is 12,5 μg/mL.

And the “fold lower MIC of nisin than rombocin A” value (L. monocytogenes LK132; against L. monocytogenes LK132)?
The value was 2 fold.

What about the MIC (L. monocytogenes TT82E; L. monocytogenes TT82E, broth microdilution, no visible growth, triplicate) of the same molecule?
The MIC was 1,56 μg/mL.

And the MIC ([5]; L. monocytogenes LMG10470, broth microdilution, no visible growth, triplicate)?
The MIC was 3,13 μg/mL.

What about the MIC ([6]; E. faecalis LMG16216 (VRE), broth microdilution, no visible growth, triplicate) of the same molecule?
The MIC was 3,13 μg/mL.

What about the “fold lower MIC of nisin than rombocin A” value ([6]; against Enterococcus faecalis) of the same molecule?
The value was 16 fold.

And the MIC ([7]; E. faecium LMG16003 (VRE), broth microdilution, no visible growth, triplicate)?
Its MIC is 3,13 μg/mL.

What about the MIC (E. faecium LMG11423; E. faecium LMG11423, broth microdilution, no visible growth, triplicate) of the same molecule?
The MIC was 3,13 μg/mL.

And the “fold higher antimicrobial activity of nisin than rombocin A (MIC)” value (E. faecium LMG11423; against Enterococcus faecium (strain not given))?
The value was 32 times.

And the “membrane depolarization (DiSC3(5) fluorescence)” value (L. lactis [8])?
Its value is “significant membrane depolarization, similar to nisin”.

And the “membrane integrity (SYTO 9 / propidium iodide fluorescence)” value (L. lactis [9])?
The value was “membrane disruption”.

And the MIC (Bacillus cereus CH-85; Bacillus cereus CH-85, broth microdilution, no visible growth, triplicate)?
Its MIC is 6,25 μg/mL.

What about the “fold lower MIC of nisin than rombocin A” value (Bacillus cereus CH-85; against Bacillus cereus) of the same molecule?
The value was 4 fold.

How did the “increase in antimicrobial activity relative to wild-type rombocin” value [10] turn out when `C=C1NC(=O)[C@H]([C@@H](C)CC)NC(=O)[C@H](NC(=O)/C(=C/C)NC(=O)[C@@H](N)[C@@H](C)CC)CSC[C@@H](C(=O)N[C@H]2C(=O)N[C@@H](C)C(=O)NCC(=O)N[C@H](C(=O)N[C@@H](CCCCN)C(=O)N[C@H]3C(=O)NCC(=O)N[C@@H](C(C)C)C(=O)N[C@@H]([C@@H](C)CC)C(=O)N[C@@H](CCSC)C(=O)N/C(=C\C)C(=O)N[C@H](C(=O)N[C@@H](CCSC)C(=O)N[C@@H]4CSC[C@@H](C(=O)N[C@@H](CCCCN)C(=O)O)NC(=O)CNC(=O)[C@H](CC(N)=O)NC4=O)CS[C@H]3C)CS[C@H]2C)NC(=O)[C@H](CC(C)C)NC1=O` [rombocin K] was run?
The value was 13%.

And the MIC (S. aureus LMG10147; LMG10147)?
The MIC was 100 µg/mL (≈ 41.7 µM).

And the MIC ([2]; LMG15975)?
The MIC was 100 µg/mL (≈ 41.7 µM).

What about the MIC (L. lactis MG1363 [4]; MG1363) of the same molecule?
The MIC was 0,78 μg/mL.

And the MIC (L. monocytogenes LK132; LK132)?
Its MIC is 12,5 μg/mL.

What about the MIC (L. monocytogenes TT82E; TT82E) of the same molecule?
The MIC was 6,25 μg/mL.

And the MIC ([5]; LMG10470)?
The MIC was 12,5 μg/mL.

And the “fold lower MIC compared to the wild-type rombocin” value ([5]; against all tested Listeria strains)?
The value was 2 fold.

What about the MIC ([6]; LMG16216) of the same molecule?
The MIC was 50 µg/mL (≈ 20.9 µM).

And the MIC ([7]; LMG16003)?
The MIC was 50 µg/mL (≈ 20.9 µM).

And the MIC (E. faecium LMG11423; LMG11423)?
The MIC was 50 µg/mL (≈ 20.9 µM).

And the MIC (Bacillus cereus CH-85; CH-85)?
Its MIC is 25 µg/mL (≈ 10.4 µM).

What does the source list for “nisin(1–22): truncated nisin variant, bacteriostatic control that only binds lipid II (I[Dhb′]SI[Dha]LCTPGCKTGALMGCNMK; also: lantibiotic: thioether rings and dehydrated residues not placed; UniProt P13068 24-45, looked up, fragment)”?
release of intracellular potassium ions (PBFI fluorescence) (L. lactis [3]): did not have this effect; membrane depolarization (DiSC3(5) fluorescence) (L. lactis [8]): did not; membrane integrity (SYTO 9 / propidium iodide fluorescence) (L. lactis [9]): did not cause any significant membrane disruption; bacteriostatic or bactericidal activity (L. lactis MG1363 [11]): bacteriostatic effect
